From patent publication EP4653431A1, “PYRAZOLE DERIVATIVE, AND PHARMACEUTICALLY ACCEPTABLE SALT, STEREOISOMER, PHARMACEUTICAL COMPOSITION AND USE THEREOF” (Starg (Wuhan) Pharmaceutical Technology Co., Ltd, priority 2023, dated 2024) come the findings set out here.

In one experiment the target is T1, CDK2/cyclin E1 (Homo sapiens, UniProt P24941).
T1 construct: purchased SignalChem
The experiment is described as follows: In vitro CDK2/cyclinE enzyme activity assay (TR-FRET). Type of experiment: biochemical. To be noted: CDK2/cyclin E1, 1 mM ATP, 120 min at 25 °C. The method, then: CDK2/cyclin E1 was purchased from SignalChem. Ulight-4E-BP1 peptide, Eu-anti-phospho-tyrosine antibody, and 1X detection buffer solution were purchased from PerkinElmer. High-purity adenosine triphosphate (ATP) was purchased from Promega. Ethylenediaminetetraacetic acid (EDTA) was purchased from Sigma. Nivo multimode plate reader (PerkinElmer) was used.
Preparation of Kinase Buffer Solution: The kinase buffer solution consisted 50 mM HEPES, 1 mM EDTA, 10 mM MgCl2, and 0.01% Brij-35, with pH of 7.4. 2.38 g HEPES, 58 mg EDTA, 406 mg MgCl2, and 20 mg Brij-35 were added to 200 mL buffer, and the pH was adjusted to 7.4.
(§1) The stop solution was prepared by mixing 100 µL of 1 M EDTA stock solution with […] of 1X detection buffer solution and 1725 µL of distilled water.
The enzyme, Ulight-4E-BP1 peptide, ATP, and the inhibitor were diluted using the kinase buffer solution. The Eu-anti-phospho-tyrosine antibody was diluted to a concentration of 8 nM/L using the detection buffer solution. The test compound was serially diluted 5-fold using a multichannel pipette to the 8th concentration, i.e., from 4 µM to 0.0512 nM. The final concentration of DMSO was 4%, and the experiment was set up with duplicate wells. 2.5 µL of each gradient concentration of the inhibitor, 5 µL of CDK2/cyclin E1 enzyme (10 ng), and 2.5 µL of a mixture of substrate and ATP (4 mM ATP, 100 nM Ulight-4E-BP1 peptide) were added to a microplate, resulting in a final concentration gradient of the compound from 1 µM to 0.0128 nM, with final ATP and substrate concentrations of 1 mM and 25 nM, respectively. The reaction system was incubated at 25 °C for 120 minutes. After the reaction, 5 µL of the stop solution was added to each well, and further reacted at 25 °C for 5 minutes to terminate the reaction. Then 5 µL of Eu-anti-phospho-tyrosine antibody dilution was added to each well, and the mixture was reacted at 25 °C for 60 minutes. Data were collected using the PerkinElmer Nivo multimode plate reader in TR-FRET mode (excitation wavelength: 320 nm; emission wavelengths: 615 nm and 665 nm).
The raw data were converted to inhibition rates according to the equation (Sample-Min)/(Max-Min)×100%. The IC50 value was obtained by fitting the data to a four-parameter curve (using log(inhibitor) vs. response -- Variable slope model in GraphPad Prism).
For orientation: TR-FRET usually uses a lanthanide donor and a delayed reading to cut background.

Another experiment concerns the target T2, CDK1/cyclin B1 (Homo sapiens, UniProt P06493).
T2 construct: purchased Carna Biosciences
Briefly: In vitro CDK1/cyclin B1 enzyme activity assay (TR-FRET). It counts as biochemical. The method, then: CDK1/cyclin B1 was purchased from Carna Biosciences. Ulight-4E-BP1 peptide, Eu-anti-phospho-tyrosine antibody, and 1X detection buffer were purchased from PerkinElmer. High-purity ATP was purchased from Promega. EDTA was purchased from Sigma. Nivo multimode plate reader (PerkinElmer) was used.
Preparation of Kinase Buffer Solution: The kinase buffer solution consisted 50 mM HEPES, 1 mM EDTA, 10 mM MgCl2, and 0.01% Brij-35, with pH of 7.4.
as §1
The enzyme, Ulight-4E-BP1 peptide, ATP, and the inhibitor were diluted using the kinase buffer solution.
The Eu-anti-phospho-tyrosine antibody was diluted to a concentration of 8 nM/L using the detection buffer solution.
The final concentration of DMSO was 4%, and the experiment was set up with duplicate wells. […] The reaction system was incubated at 25 °C for 60 minutes. After the reaction, 5 µL of the stop solution was added to each well, and further reacted at 25 °C for 5 minutes to terminate the reaction. Then 5 µL of Eu-anti-phospho-tyrosine antibody dilution was added to each well, and the mixture was incubated at 25 °C for 60 minutes.
The IC50 value was obtained by fitting the data to a four-parameter curve (using log(inhibitor) vs. response -- Variable slope model in GraphPad Prism).

The test system of the next experiment is T-47D cells. The experiment is described as follows: In vitro T-47D cell viability assay (CellTiter-Glo). The settings on record: Homo sapiens, T47D, 168 h, 7 days incubation. Type of experiment: cell-based. The method, then:
1640 medium, fetal bovine serum, and penicillin/streptomycin antibiotics were purchased from Wisent. CellTiter-Glo (cell viability chemiluminescence assay reagent) was purchased from Promega. The T-47D cell line was purchased from Nanjing Cobioer Biosciences Co., Ltd. Envision multimode plate reader (PerkinElmer) was used.
T-47D cells were seeded into a white 384-well plate, with 40 µL of cell suspension containing 300 T-47D cells per well. The cell plate was incubated overnight in a CO2 incubator.
The test compound was serially diluted 5-fold using a multichannel pipette to the 8th concentration, i.e., from 2000 µM to […]. The experiment was set up with duplicate wells. 78 µL of culture medium was added to an intermediate plate, and 2 µL per well of the gradient-diluted compound was transferred to the corresponding position in the intermediate plate. After mixing, 10 µL per well of the mixture was transferred to the cell plate. The concentration range of the compound transferred to the cell plate was from 10 µM to 0.026 nM. The cell plate was incubated in a CO2 incubator for 7 days. Another cell plate was prepared, and the signal value was read on the day of compound addition to serve as the maximum value (Max in the equation below) for data analysis. 10 µL per well of CellTiter-Glo reagent was added to the cell plate, and the cell plate was incubated at room temperature for 10 minutes to stabilize the luminescence signal. The signal was read using the Envision multimode plate reader.
10 µL per well of CellTiter-Glo reagent was added to the cell plate, and the cell plate was incubated at room temperature for 10 minutes to stabilize the luminescence signal. The signal was read using the Envision multimode plate reader.
The raw data were converted to inhibition rates using the equation (Sample-Min)/(Max-Min)×100%. The IC50 value was obtained by fitting the data to a four-parameter curve (using log(inhibitor) vs. response -- Variable slope model in GraphPad Prism). Table 1 provides the inhibitory activity of the compounds of the present application against T-47D cell proliferation.
For orientation: Cellular ATP, detected with luciferase, serves as a proxy for viable cell number.

The mark [1] stands for this setting: CDK1/cyclin B1, 1 mM ATP, 60 min at 25 °C, Table 1, read-out: CDK1 IC50.
Setting [2] is: exact values stated in the text below Table 1, read-out: IC50 against CDK1.

pIC50: −log10 of the molar value. Where a name gives a salt, the structure may show the parent alone. Read-outs that look alike come from different tables or passages of the source.

T2 sequence (P06493 whole entry): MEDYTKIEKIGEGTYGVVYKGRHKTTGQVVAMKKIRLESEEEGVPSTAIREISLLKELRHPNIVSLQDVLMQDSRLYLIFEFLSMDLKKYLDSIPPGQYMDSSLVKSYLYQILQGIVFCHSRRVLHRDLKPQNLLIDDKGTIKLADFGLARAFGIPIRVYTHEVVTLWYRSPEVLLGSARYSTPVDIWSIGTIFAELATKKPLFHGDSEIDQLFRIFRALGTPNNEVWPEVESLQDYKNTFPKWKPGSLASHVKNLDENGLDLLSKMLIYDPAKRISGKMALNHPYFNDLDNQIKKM
T2 sequence (P14635 whole entry partner): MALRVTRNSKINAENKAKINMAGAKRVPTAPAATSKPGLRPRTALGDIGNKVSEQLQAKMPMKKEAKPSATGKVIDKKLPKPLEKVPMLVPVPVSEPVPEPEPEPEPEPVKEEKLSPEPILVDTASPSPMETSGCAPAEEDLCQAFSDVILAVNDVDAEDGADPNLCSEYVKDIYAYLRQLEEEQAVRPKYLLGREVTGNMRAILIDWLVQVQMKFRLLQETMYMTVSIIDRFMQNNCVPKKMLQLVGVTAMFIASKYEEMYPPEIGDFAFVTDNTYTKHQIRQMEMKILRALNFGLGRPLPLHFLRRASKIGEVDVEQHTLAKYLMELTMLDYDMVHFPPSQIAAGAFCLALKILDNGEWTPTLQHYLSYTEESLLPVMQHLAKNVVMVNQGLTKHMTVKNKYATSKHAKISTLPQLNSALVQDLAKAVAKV

Consider `CON(C)Cc1nn2ccnc(Nc3cc([C@H]4CC[C@@H](OC(=O)NC(C)C)C4)[nH]n3)c2c1F` [Compound 6], for which the pIC50 (commonly the IC50 on a negative log10 scale, so that one unit is a factor of ten) is 8.13 against CDK2/cyclin E1, under 6.00 at CDK1/cyclin B1 (setting [1]), 5.46 on CDK1/cyclin B1 (setting [2]) and 6.42 in the experiment with T-47D cells.
`CON(C)Cc1nn2ccnc(Nc3cc([C@H]4CC[C@@H](OC(=O)NC(C)C)C4)[nH]n3)c2c1C` [Formate salt of compound 2]: the pIC50 on CDK2/cyclin E1 was 8.39; at CDK1/cyclin B1 (setting [1]), under 6.00; on CDK1/cyclin B1 (setting [2]) it was 5.39; in the experiment on T-47D cells, 6.33.
With `CONCc1nn2ccnc(Nc3cc([C@H]4CC[C@@H](OC(=O)NC(C)C)C4)[nH]n3)c2c1F` [Compound 5], the negative-log IC50 (pIC50) was 8.17 at CDK2/cyclin E1, under 6.00 at CDK1/cyclin B1 (setting [1]), 5.82 at CDK1/cyclin B1 (setting [2]) and 6.71 in the experiment on T-47D cells.
